According to US11076595B2, “1-(n,n-disubstituted carbamoyl) 4-(substituted sulfonyl)triazolin-5-one derivative, 4-(n,n-disubstituted carbamoyl) 1-(substituted sulfonyl)triazolin-5-one derivative, and herbicide containing said derivative as active ingredient” (HOKKO CHEMICAL INDUSTRY CO., LTD., priority 2017, dated 2021):

Key:
Type in all cases: in vivo
Amaranthus viridis [1] = assay: Test Example 4: herbicidal effect test by foliage treatment in upland field; details: upland field foliage treatment 7 days after sowing; 120 g/10a; evaluated 14 days after treatment
Procedure, shortened: (§1)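 Weeds were sown in alluvial field soil, 20 seeds per species, and sprayed 7 days after sowing with water-diluted emulsifiable concentrate at 100 liter per 10 are, equal to 120 g active ingredient per 10 are. Suppression was scored 14 days after treatment from dry weight relative to untreated plots.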

Echinochloa crus-galli [2] = assay: as above; details: upland field foliage treatment 7 days after sowing; 120 g/10a; evaluated 14 days after treatment
Procedure, shortened: as §1

crabgrass [3] = assay: as above; details: upland field foliage treatment 7 days after sowing; 120 g/10a; evaluated 14 days after treatment
Procedure, shortened: as §1

Chenopodium album [4] = assay: as above; details: upland field foliage treatment 7 days after sowing; 120 g/10a; evaluated 14 days after treatment
Procedure, shortened: as §1

Monochoria vaginalis [5] = assay: Test Example 1: herbicidal effect test by soil treatment in paddy field; details: 120 g/10a, paddy soil treatment just after sowing, 14 days after treatment
Procedure, shortened: (§2)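 Paddy soil in flooded pots (~3 cm water), sown with 30 seeds per species at 0–1 cm depth, kept in a greenhouse. Water-diluted emulsifiable concentrate applied dropwise right after sowing at 120 g active ingredient per 10 are. Weed suppression (%) from dry weight vs untreated pots after 14 days, two replicates.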

Scirpus juncoides [6] = assay: as above; details: 120 g/10a, paddy soil treatment just after sowing, 14 days after treatment
Procedure, shortened: as §2

Echinochloa crus-galli [7] = assay: as above; details: 120 g/10a, paddy soil treatment just after sowing, 14 days after treatment
Procedure, shortened: as §2

Lindernia pyxidaria [8] = assay: as above; details: 120 g/10a, paddy soil treatment just after sowing, 14 days after treatment
Procedure, shortened: as §2

Amaranthus viridis [9] = assay: Test Example 3: herbicidal effect test by soil treatment in upland field; details: upland field soil treatment 1 day after sowing; 120 g/10a; evaluated 14 days after treatment
Procedure, shortened: (§3)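 Pre-emergence soil spray applied one day after sowing 20 seeds of each weed into surface soil, dosed at 120 g a.i. per 10 are in 100 L water per 10 are. After 14 days, plants weighed dry; suppression (%) calculated against untreated plots, duplicate plots per concentration.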

Echinochloa crus-galli [10] = assay: as above; details: upland field soil treatment 1 day after sowing; 120 g/10a; evaluated 14 days after treatment
Procedure, shortened: as §3

crabgrass [11] = assay: as above; details: upland field soil treatment 1 day after sowing; 120 g/10a; evaluated 14 days after treatment
Procedure, shortened: as §3

Chenopodium album [12] = assay: as above; details: upland field soil treatment 1 day after sowing; 120 g/10a; evaluated 14 days after treatment
Procedure, shortened: as §3

Monochoria vaginalis [13] = assay: Test Example 2: herbicidal effect test by treatment during growing period in paddy field; details: treatment 7 days after sowing, 120 g/10a, evaluated 14 days after treatment
Procedure, shortened: (§4)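 Read-out is weed suppression (%), 1 − mean dry weight treated/untreated ×100, taken 14 days after treatment with duplicate plots. Treatment: water-diluted emulsifiable concentrate added dropwise to flooded paddy-soil pots 7 days post-sowing at 120 g active ingredient per 10 are.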

Scirpus juncoides [14] = assay: as above; details: treatment 7 days after sowing, 120 g/10a, evaluated 14 days after treatment
Procedure, shortened: as §4

Echinochloa crus-galli [15] = assay: as above; details: treatment 7 days after sowing, 120 g/10a, evaluated 14 days after treatment
Procedure, shortened: as §4

Lindernia pyxidaria [16] = assay: as above; details: treatment 7 days after sowing, 120 g/10a, evaluated 14 days after treatment
Procedure, shortened: as §4

Compound | herbicidal effect (weed suppression rate), Amaranthus viridis (Amaranthus viridis [1]) [%] | herbicidal effect (weed suppression rate), Echinochloa crus-galli (Echinochloa crus-galli [2]) [%] | herbicidal effect (weed suppression rate), Crabgrass (crabgrass [3]) [%] | herbicidal effect (weed suppression rate), Chenopodium album (Chenopodium album [4]) [%] | weed suppression rate, Monochoria vaginalis (Monochoria vaginalis [5]) [%] | weed suppression rate, Scirpus juncoides (Scirpus juncoides [6]) [%] | weed suppression rate, Echinochloa crus-galli (Echinochloa crus-galli [7]) [%] | weed suppression rate, Lindemia pyxidaria (Lindernia pyxidaria [8]) [%] | herbicidal effect (weed suppression rate), Amaranthus viridis (Amaranthus viridis [9]) [%] | herbicidal effect (weed suppression rate), Echinochloa crus-galli (Echinochloa crus-galli [10]) [%] | herbicidal effect (weed suppression rate), Crabgrass (crabgrass [11]) [%] | herbicidal effect (weed suppression rate), Chenopodium album (Chenopodium album [12]) [%] | weed suppression rate, Monochoria vaginalis (Monochoria vaginalis [13]) [%] | weed suppression rate, Scirpus juncoides (Scirpus juncoides [14]) [%] | weed suppression rate, Echinochloa crus-galli (Echinochloa crus-galli [15]) [%] | weed suppression rate, Lindemia pyxidaria (Lindernia pyxidaria [16]) [%]
CC(C)N(C(=O)n1ncn(S(=O)(=O)C2CC2)c1=O)c1ccc(Cl)nc1Cl [Compound 1-249] | 90 | 80 | 90 | 80 | 90 | 90 | 100 | 90 | 90 | 80 | 90 | 80 | 90 | 90 | 100 | 90
Cc1nn(C(=O)N(c2ccc(F)cc2F)C(C)C)c(=O)n1S(=O)(=O)C1CC1 [Compound 1-257] | 90 | 80 | 90 | 80 | 80 | 90 | 90 | 80 | 90 | 80 | 90 | 80 | 80 | 90 | 90 | 80
CC(C)N(C(=O)n1ncn(S(=O)(=O)C2CCC2)c1=O)c1ccc(F)cc1F [Compound 1-269] | 90 | 80 | 90 | 80 | 100 | 90 | 100 | 100 | 90 | 90 | 90 | 90 | 90 | 90 | 100 | 100
CC(C)N(C(=O)n1ncn(S(=O)(=O)C2CCCC2)c1=O)c1ccc(F)cc1F [Compound 1-284] | 90 | 80 | 90 | 80 | 100 | 100 | 100 | 100 | 60 | 90 | 90 | 90 | 90 | 90 | 90 | 90
CC(C)N(C(=O)n1ncn(S(=O)(=O)C2CCCCC2)c1=O)c1ccccc1 [Compound 1-295] | 90 | 80 | 90 | 80 | 80 | 90 | 90 | 80 | 90 | 80 | 90 | 80 | 80 | 90 | 90 | 80
